Results reported in patent publication US20090123565A9, “Copper-dependent non-traditional pro-inflammatory cytokine export and methods, compositions and kits relating thereto” (Maine Medical Center Research Institute, priority 2001, published 2009).

Columns and labels:
[1] = tested on: balloon-injured rat carotid artery; assay: Neointima formation after balloon injury of rat carotid artery (histomorphometry, I/M ratio); type: in vivo, Sprague-Dawley rats
Description: Seventy-nine Sprague-Dawley male rats (Charles River Laboratories) weighing 350 to 450 grams, at 12-16 weeks of age, were included in the study. All rats in this study were handled according to the animal welfare regulation of the Maine Medical Center Research Institute, and the study protocol has been approved by the Animal Care and Use Committee of that institution. The rats received humane care in accordance with the animal use principles of the American Society of Physiology. All rats were maintained under identical conditions of temperature (21±1° C.), humidity (60±5%), and light/dark cycle, and had free access to normal rat chow.
To assess the effect of time course of copper chelation in relation to the injury on the neointima formation, 5 additional groups of rats were studied. All of them were treated with TTM for 2 weeks before the injury, and then TTM was withheld as follows: at the day of the injury (n=6) as well as 4 days (n-5), 6 days (n=7), 8 days (n=6), and 10 days (n=6) after the balloon denudation.
Rats were anesthetized with an intraperitoneal injection of ketamine (50 mg/kg) and xylazine (2.2 mg/kg). Angioplasty of the carotid artery was performed with a balloon embolectomy catheter as previously described. Briefly, the balloon catheter (2F Fogarty, Edwards Laboratories) was introduced through the left external carotid artery into the aorta, and the balloon was inflated. The vessel was damaged by passing an inflated balloon through the lumen three times. The catheter was rotated when pulling back. At the time of the final experiment, the animals were euthanized after anesthesia. A midline abdominal incision exposing the distal abdominal aorta was made. After retrograde cannulation of the abdominal aorta at its bifurcation with a 18-gauge intravenous catheter, the arterial tree was cleared of blood by perfusion with 100 ml of PBS (pH 7.2), followed by in vivo fixation with either 4% formaldehyde in phosphate-buffered saline (pH 7.2) or acetone/ethanol solution in 1:1 ratio. The entire left and right carotid arteries were harvested, including the aortic arch, innominate artery and left carotid bifurcation, and further immersed in the respective fixative. The injured left common carotid arteries were cut in three sections at least 4 mm long from the proximal, middle and distal part. From each study group, a part from the untreated contra-lateral right common carotid artery (control) was taken as well. The specimens were then dehydrated through a graded ethanol series, and embedded in paraffin for sectioning. Other arteries were not perfusion-fixed but were removed and immediately frozen. Three different segments of the left carotid artery were used for histological, morphometric, and immunohistochemical studies.
Morphometric analysis of the arterial segment was carried out in a blind manner on cross-sections stained with hematoxylin-eosin. For each animal at least 3 sections originating from the proximal, middle and distal segment of the injured vessel were quantitatively measured. Using a computerized digital microscopic planimetry algorithm (Optimas, Version 5.22), the areas within the external elastic lamina (EEL area), the internal elastic lamina (IEL area), and the luminal area were measured. Other areas were calculated as follows: medial area=EEL area−IEL area; neointimal area=IEL area−luminal area; neointima-to-media (I/M ratio=neointimal area/medial area.

[2] = tested on: balloon-injured rat carotid artery; assay: Cell proliferation in injured arterial wall (α-smooth muscle actin and PCNA immunostaining); type: in vivo, Sprague-Dawley rats
Method: (§1) In order to address the mechanisms underlying the effect of copper chelation on neointima formation, TTM was administered for 2 weeks before the balloon injury and daily after that until the animals were euthanized at the 4th and 7th day after the procedure. Accordingly, TTM-free animals euthanized 4 and 7 days after the injury were used as controls.
Proliferating cell nuclear antigen (PCNA) analysis was used to quantify the proliferative activity of cells at the balloon injury sites, and it was performed according to Siitonen et al. Briefly, PCNA-positive cells were counted in the vessel cross sections using a standard light microscope equipped with an ocular reticule (magnification ×10) and a ×40 objective. At least 500 nuclei were counted from each slide. The sections were photographed under low power, the images were video-digitized, and stored in the image analysis system (Qwin Lite 2.2, Leica). Staining results were expressed as percentage of PCNA-immunoreactive cell nuclei. Faint diffuse nuclear staining seen in some tissue sections was not included in the PCNA score.
Macrophage migration was evaluated by immunostaining with the macrophage-specific monoclonal antibody CD11b (MAC1) in acetone/ethanol fixed sections. To quantitate the extent of macrophage invasion, the area occupied by MAC1-positive cells as a percentage of the total area of the neointima was determined. The number of SMCs in the injured artery was counted at day 4, 7 and 14 by the modified method of Prescott et al. Briefly, the cross-sections were subjected to immunohistostaining against α-smooth muscle actin using a commercially available detection system (DAKO) and counter-stained with hematoxylin. The number of nuclei that were accompanied by α-smooth muscle actin-positive cytoplasm was counted at a magnification of ×40 in 10 independent sections from each rat by an observer in a blind manner.

[3] = tested on: balloon-injured rat carotid artery; assay: S100A13, IL1, p40, PS expression in balloon-injured vessel wall (immunohistochemistry); type: in vivo, Sprague-Dawley rats
Method: as §1
To evaluate S100A13, FGF1, p40 and IL-1α expression in balloon-injured arteries, paraffin-embedded specimens from the 4th, 7th and 14th day after the injury were cut into 5-μm cross sections, and mounted on glass slides. These sections were incubated in 10% hydrogen peroxide for 90 minutes to block endogenous peroxidase activity. Nonspecific binding was prevented by preincubating the sections with 5% bovine serum albumin (BSA; Sigma) in PBS. The sections were sequentially incubated with polyclonal rabbit anti-S100A13 antibody at a concentration of 1:200; polyclonal rabbit anti-FGF1 antibody at a concentration of 1:500; monoclonal mouse anti-p40 antibody at a concentration of 1:100; polyclonal rabbit anti-IL-1a antibody at a concentration of 1:50; phosphatidylserine (PS) antibody. After they were washed with PBS, the sections were incubated with anti-rabbit and anti-mouse IgG-conjugated horseradish peroxidase (Biorad) for an additional 30 minutes at room temperature. Each incubation was followed by a wash in PBS. Staining was visualized using the chromogen 0.06% 3,3′-diaminobenzidine/5% hydrogen peroxide in 0.05 mol/L Tris-HCl (pH 7.6). Control sections were incubated with nonimmune rabbit IgG at a concentration of 1:200.

ceruloplasmin = conditions: cited from earlier work

SMILES: [NH4+].[NH4+].[SH-].[SH-].[S]=[Mo]=[S] [TTM, ammonium tetrathiomolybdate]
- neointima development, hematoxylin-eosin, vs controls ([1]; 4 days after the injury): no difference
- intima/media ratio ([1]; 14 days after balloon injury, TTM 10 mg/kg daily started 1 week before injury, 2 weeks after, n=6, controls 1.76±0.105): 0.96±0.121
- intima/media ratio ([1]; 14 days after balloon injury, TTM 10 mg/kg daily started 2 weeks before injury, 2 weeks after, n=6, controls 1.76±0.105): 0.83±0.006
- intima/media ratio ([1]; 14 days after balloon injury, TTM 10 mg/kg daily started on the day of injury, 2 weeks after, n=5, controls 1.76±0.105): 1.27±0.04
- reduction in the neointima formation in the rat carotid artery ([1]; TTM administration before and after injury, vs controls): up to 53%
- intima/media ratio ([1]; TTM started 2 weeks before injury, continued 6 days after): 0.76±0.06
- intima/media ratio ([1]; TTM started 2 weeks before injury, continued 8 days after): 0.83±0.1
- intima/media ratio ([1]; TTM started 2 weeks before injury, continued 10 days after): 0.79±0.013
- intima/media ratio ([1]; TTM started 2 weeks before injury, stopped at the day of the injury): 1.29±0.19
- neointima development, hematoxylin-eosin, vs controls ([1]; day 7 after the injury): more pronounced in the controls
- I/M ratio compared to the controls ([1]; each TTM regimen, 14 days after balloon injury (FIG. 6E)): significant decrease
- SMA-positive cells in the neointima vs TTM-free rats ([2]; 7 and 14 days after the injury): significantly less abundant
- PCNA-positive cells in the neointimal area ([2]; 14 days after balloon angioplasty, 10 mg/kg, 2 weeks before/2 weeks after injury, n=5, P<0.05): significant reduction
- SMA-positive cells in the neointima vs TTM-free rats ([2]; day 4 after the balloon injury): No significant difference
- S100A13, IL1 and PS staining in the neointima ([3]; 4 and 7 days after injury): no positive staining was detected
- IL1 positive staining ([3]; 7 and 14 days after the balloon injury): almost complete inhibition
- presence of S100A13 compared to the controls ([3]; 7 and 14 days after the injury): significantly decreased
- S100A13, IL1 and PS staining in the neointima ([3]; 14 days after the injury): only a few cells were positively stained
- phosphatidylserine flipping ([3]; balloon-injured arteries, controls did show it): did not show phosphatidylserine flipping
- time to induce copper deficiency (ceruloplasmin; humans, safely): 2-4 weeks
- ceruloplasmin reduction to (ceruloplasmin; patients with cancer, withstood for months and years (Brewer et al., 2000)): 20 % of baseline
